Experimental data: patent publication US20220220128A1, “HETEROCYCLIC COMPOUNDS AS KINASE INHIBITORS, COMPOSITIONS COMPRISING THE HETEROCYCLIC COMPOUND, AND METHODS OF USE THEREOF” (JS Innopharm (Shanghai) Ltd, priority 2019, published 2022)

What was measured:
human RET kinase = biological target: T1, human RET kinase (Homo sapiens, UniProt P07949); experiment: RET Kinase Assay (LanthaScreen TR-FRET enzymatic assay); type: biochemical; settings: 7 nM RET, 23 μM ATP
T1 construct: purchased Carna 08-159
T1 sequence (P07949 29-1114): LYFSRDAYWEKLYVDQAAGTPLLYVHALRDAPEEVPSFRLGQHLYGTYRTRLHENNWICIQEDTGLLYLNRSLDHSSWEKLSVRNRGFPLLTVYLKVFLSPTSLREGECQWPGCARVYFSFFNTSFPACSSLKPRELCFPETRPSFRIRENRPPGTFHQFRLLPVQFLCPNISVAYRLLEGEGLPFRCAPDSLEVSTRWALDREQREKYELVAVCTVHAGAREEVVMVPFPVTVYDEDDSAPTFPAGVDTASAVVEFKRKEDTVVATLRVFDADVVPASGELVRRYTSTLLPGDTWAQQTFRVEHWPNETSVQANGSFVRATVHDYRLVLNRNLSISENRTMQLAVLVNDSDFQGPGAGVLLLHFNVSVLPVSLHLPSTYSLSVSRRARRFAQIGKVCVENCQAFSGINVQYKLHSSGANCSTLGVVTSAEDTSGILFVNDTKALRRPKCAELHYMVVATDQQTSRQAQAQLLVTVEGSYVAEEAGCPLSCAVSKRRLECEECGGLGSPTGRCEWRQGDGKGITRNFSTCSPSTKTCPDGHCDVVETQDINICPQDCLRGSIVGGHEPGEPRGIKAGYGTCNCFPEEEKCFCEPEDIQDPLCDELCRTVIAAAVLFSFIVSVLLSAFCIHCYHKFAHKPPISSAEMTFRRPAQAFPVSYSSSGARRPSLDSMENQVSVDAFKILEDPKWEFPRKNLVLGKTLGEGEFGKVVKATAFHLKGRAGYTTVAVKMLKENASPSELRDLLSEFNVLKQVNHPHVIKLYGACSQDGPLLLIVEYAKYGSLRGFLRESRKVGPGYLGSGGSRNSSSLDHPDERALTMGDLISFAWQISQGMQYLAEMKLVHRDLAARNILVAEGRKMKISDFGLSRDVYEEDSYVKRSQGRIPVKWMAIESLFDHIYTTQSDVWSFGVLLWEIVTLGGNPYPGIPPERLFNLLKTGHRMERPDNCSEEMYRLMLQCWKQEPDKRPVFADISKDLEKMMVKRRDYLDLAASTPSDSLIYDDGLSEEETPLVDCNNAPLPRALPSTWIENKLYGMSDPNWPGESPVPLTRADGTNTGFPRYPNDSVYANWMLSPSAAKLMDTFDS
Method in brief: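 TR-FRET enzymatic read-out using 23 μM ATP, 3 μM FAM-P2 substrate and 7 nM human RET, after 15-min compound pretreatment at room temperature and a 1 h reaction at 28° C in HEPES pH 7.5 buffer. Percent of DMSO control fitted to nonlinear sigmoid curves for IC50.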

BAF3-KIF5B-RET cells = biological target: T2, BAF3-KIF5B-RET cells (Homo sapiens, UniProt P07949); experiment: BAF3-KIF5B-RET Cell proliferation assay (CellTiter-Glo, 72 hours); type: cell-based; settings: growth inhibition, read-out: BA/F3-KIF5B-RET Cellular activity
T2 construct: fused on or other part: P33176 (Kinesin-1 heavy chain)
T2 sequence (P07949 whole entry, change not shown, the tested form may be a part): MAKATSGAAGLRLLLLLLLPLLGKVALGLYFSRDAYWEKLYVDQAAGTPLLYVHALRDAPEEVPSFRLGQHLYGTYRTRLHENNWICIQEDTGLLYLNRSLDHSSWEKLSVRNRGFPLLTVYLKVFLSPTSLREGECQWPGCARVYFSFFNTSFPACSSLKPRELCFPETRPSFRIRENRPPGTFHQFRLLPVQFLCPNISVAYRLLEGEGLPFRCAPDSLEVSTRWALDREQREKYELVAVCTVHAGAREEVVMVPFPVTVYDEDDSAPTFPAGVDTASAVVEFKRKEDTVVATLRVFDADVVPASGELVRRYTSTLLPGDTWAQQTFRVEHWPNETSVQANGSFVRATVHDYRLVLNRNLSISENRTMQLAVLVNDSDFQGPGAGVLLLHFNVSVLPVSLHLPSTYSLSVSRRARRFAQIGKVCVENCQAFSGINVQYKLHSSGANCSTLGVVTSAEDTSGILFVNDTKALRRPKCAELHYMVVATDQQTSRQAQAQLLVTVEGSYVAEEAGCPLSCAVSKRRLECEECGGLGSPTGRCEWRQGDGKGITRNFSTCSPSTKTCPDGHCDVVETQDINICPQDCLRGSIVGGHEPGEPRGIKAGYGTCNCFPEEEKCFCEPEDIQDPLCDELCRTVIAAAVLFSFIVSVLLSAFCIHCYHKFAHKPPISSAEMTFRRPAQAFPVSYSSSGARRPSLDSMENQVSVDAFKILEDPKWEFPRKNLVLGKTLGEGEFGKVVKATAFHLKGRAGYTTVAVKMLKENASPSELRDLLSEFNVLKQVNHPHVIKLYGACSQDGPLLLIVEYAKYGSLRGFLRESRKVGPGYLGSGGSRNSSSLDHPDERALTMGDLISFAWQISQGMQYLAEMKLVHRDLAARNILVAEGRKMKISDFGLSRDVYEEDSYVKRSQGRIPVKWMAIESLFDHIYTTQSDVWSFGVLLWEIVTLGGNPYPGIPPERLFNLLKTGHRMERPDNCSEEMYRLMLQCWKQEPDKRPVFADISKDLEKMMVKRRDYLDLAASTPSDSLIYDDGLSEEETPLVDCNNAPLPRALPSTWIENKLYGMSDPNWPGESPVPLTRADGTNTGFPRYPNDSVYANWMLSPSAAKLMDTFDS
Protocol: Compounds disclosed herein were tested for the inhibition of RET by a cancer cell proliferation assay commonly known as CellTiter-Glo assay. In this assay, a complete media was prepared by adding 10% fetal bovine serum to RPMI-1640 medium (Life technology) for BAF3-FIF5B-RET cells. BAF3-KIF5B-RET cells were added to each of 88 wells of a 96 well plate at a seeding density of 2,000 cells/well/95 μL. The cells were allowed to attach to the plate by incubating at 37° C. for 24 hours. The compound was dissolved in DMSO (SIGMA). A solution of test compound was prepared in complete media by serial dilution to obtain the following concentrations: 20 μM, 6.67 μM, 2.22 μM, 0.74 μM, 0.25 μM, 0.082 μM, 0.027 μM, 0.0091 μM and 0.0030 μM. The test compound solution (5 μL) was added to each of 80 cell-containing wells. The final concentrations of the compound were following: 1 μM, 0.33 μM, 0.11 μM, 0.037 μM, 0.012 μM, 0.0041 μM, 0.0014 μM, 0.00046 μM and 0.00015 μM. The final concentration of DMSO is 0.1%. To the 8 remaining cell-containing wells, only complete media (containing 0.1% DMSO) was added to form a control group in order to measure maximal proliferation. To the remaining 8 empty wells, complete media was added to for a vehicle control group in order to measure background. The plates were incubated at 37° C. for 72 hours. 50 μl of CellTiter-Glo® Reagent was added to each well. Mix contents for 2 minutes on an orbital shaker to induce cell lysis. Incubate at room temperature for 10 minutes to stabilize luminescent signal. Record luminescence on Paradigm. Cell viability (CV %) was calculated relative to vehicle (DMSO) treated control wells. The IC50 was calculated using GraphPad Prism.

| IC50 (human RET kinase) [nM] | GI50 (BAF3-KIF5B-RET cells) [nM] | Compound |
| --- | --- | --- |
| ≤ 10 | 10 to 50 | COc1ccc(C(=O)N2[C@@H]3CC[C@H]2[C@H]2CN(c4ccc(-c5cc(OCC(C)(C)O)cn6ncc(C#N)c56)cn4)C[C@H]23)cn1 [Example 174, 6-(2-hydroxy-2-methylpropoxy)-4-(6-((3aR,4S,7R,7aS)-8-(6-methoxynicotinoyl)hexahydro-1H-4,7-epiminoisoindol-2(3H)-yl)pyridin-3-yl)pyrazolo[1,5-a]pyridine-3-carbonitrile] |
| ≤ 10 | ≤ 10 | COc1cccc(C(=O)N[C@]2(C)C[C@H]3CN(c4cnc(-c5cc(-c6cnn(C)c6)cn6ncc(C#N)c56)cn4)C[C@H]3C2)n1 [Example 146, N-((3aR,5s,6aS)-2-(5-(3-cyano-6-(1-methyl-1H-pyrazol-4-yl)pyrazolo[1,5-a]pyridin-4-yl)pyrazin-2-yl)-5-methyloctahydrocyclopenta[c]pyrrol-5-yl)-6-methoxypicolinamide] |
| ≤ 10 | 50 to 100 | COc1ccc(CNC(=O)[C@H]2[C@@H]3CN(c4ccc(-c5cc(OCC(C)(C)O)cn6ncc(C#N)c56)cn4)C[C@@H]32)cn1 [Example 119, (1R,5S,6r)-3-(5-(3-cyano-6-(2-hydroxy-2-methylpropoxy)pyrazolo[1,5-a]pyridin-4-yl)pyridin-2-yl)-N-((6-methoxypyridin-3-yl)methyl)-3-azabicyclo[3.1.0]hexane-6-carboxamide] |
| ≤ 10 | ≤ 10 | CC(C)(O)COc1cc(-c2ccc(N3C[C@H]4C[C@@H](NC(=O)c5ncccc5Cl)C[C@H]4C3)nc2)c2c(C#N)cnn2c1 [Example 106, 3-chloro-N-((3aR,5r,6aS)-2-(5-(3-cyano-6-(2-hydroxy-2-methylpropoxy)pyrazolo[1,5-a]pyridin-4-yl)pyridin-2-yl)octahydrocyclopenta[c]pyrrol-5-yl)picolinamide] |
| 10 to 50 | > 100 | COc1ccc(C(=O)N[C@@]2(C)C[C@H]3CN(c4ccc(-c5cc(OCC(C)(C)O)cn6ncc(C#N)c56)cn4)C[C@H]3C2)cn1 [Example 172, N-((3aR,5r,6aS)-2-(5-(3-cyano-6-(2-hydroxy-2-methylpropoxy)pyrazolo[1,5-a]pyridin-4-yl)pyridin-2-yl)-5-methyloctahydrocyclopenta[c]pyrrol-5-yl)-6-methoxynicotinamide] |
| ≤ 10 | 10 to 50 | COc1ccc(C(=O)NC[C@@H]2[C@H]3CN(c4cnc(-c5cc(-c6cnn(C)c6)cn6ncc(C#N)c56)cn4)C[C@@H]23)cn1 [Example 156, N-(((1R,5S,6s)-3-(5-(3-cyano-6-(1-methyl-1H-pyrazol-4-yl)pyrazolo[1,5-a]pyridin-4-yl)pyrazin-2-yl)-3-azabicyclo[3.1.0]hexan-6-yl)methyl)-6-methoxynicotinamide] |
| ≤ 10 | ≤ 10 | CC(C)(O)COc1cc(-c2cnc(N3C[C@@H]4C[C@@](C)(NC(=O)c5c(F)cccc5Cl)C[C@@H]4C3)cn2)c2c(C#N)cnn2c1 [Example 144, 2-chloro-N-((3aR,5s,6aS)-2-(5-(3-cyano-6-(2-hydroxy-2-methylpropoxy)pyrazolo[1,5-a]pyridin-4-yl)pyrazin-2-yl)-5-methyloctahydrocyclopenta[c]pyrrol-5-yl)-6-fluorobenzainide] |
| 50 to 100 | > 100 | CC(C)(O)COc1cc(-c2cnc(N3C[C@H]4CN(Cc5ccc(C#N)nc5)C[C@H]4C3)cn2)c2c(C#N)cnn2c1 [Example 177, 4-(5-((3aR,6aS)-5-((6-cyanopyridin-3-yl)methyl)hexahydropyrrolo[3,4-c]pyrrol-2(1H)-yl)pyrazin-2-yl)-6-(2-hydroxy-2-methylpropoxy)pyrazolo[1,5-a]pyridine-3-carbonitrile] |
| ≤ 10 | ≤ 10 | COc1cccnc1C(=O)N[C@]1(C)C[C@H]2CN(c3cnc(-c4cc(-c5cnn(C)c5)cn5ncc(C#N)c45)cn3)C[C@H]2C1 [Example 151, N-((3aR,5s,6aS)-2-(5-(3-cyano-6-(1-methyl-1H-pyrazol-4-yl)pyrazolo[1,5-a]pyridin-4-yl)pyrazin-2-yl)-5-methyloctahydrocyclopenta[c]pyrrol-5-yl)-3-methoxypicolinamide] |
| ≤ 10 | 10 to 50 | CC(C)(O)COc1cc(-c2cnc(N3C[C@@H]4[C@@H](CNC(=O)c5c(F)cccc5Cl)[C@@H]4C3)cn2)c2c(C#N)cnn2c1 [Example 154, 2-chloro-N-(((1R,5S,6s)-3-(5-(3-cyano-6-(2-hydroxy-2-methylpropoxy)pyrazolo[1,5-a]pyridin-4-yl)pyrazin-2-yl)-3-azabicyclo[3.1.0]hexan-6-yl)methyl)-6-fluorobenzamide] |
| ≤ 10 | 10 to 50 | COc1ccc(CN2C[C@@H]3CN(c4cnc(-c5cc(OCC(C)(C)O)cn6ncc(C#N)c56)cn4)C[C@@H]3C2)cn1 [Example 120, 6-(2-hydroxy-2-methylpropoxy)-4-(5-((3aR,6aS)-5-((6-methoxypyridin-3-yl)methyl)hexahydropyrrolo[3,4-c]pyrrol-2(1H)-yl)pyrazin-2-yl)pyrazolo[1,5-a]pyridine-3-carbonitrile] |

Second part, the compound before the results:

| Compound | IC50 (human RET kinase) [nM] | GI50 (BAF3-KIF5B-RET cells) [nM] |
| --- | --- | --- |
| Cn1cc(-c2cc(-c3cnc(N4C5CC6CC4CC(NC(=O)c4ncccc4Cl)(C6)C5)cn3)c3c(C#N)cnn3c2)cn1 [Example 112, 3-chloro-N-((1R,3S,5s,7s)-2-(5-(3-cyano-6-(1-methyl-1H-pyrazol-4-yl)pyrazolo[1,5-a]pyridin-4-yl)pyrazin-2-yl)-2-azaadamantan-5-yl)picolinamide] | ≤ 10 | ≤ 10 |
| Cn1ccc(-c2cc(-c3ccc(N4C[C@@H]5C[C@@](O)(Cc6ccccn6)C[C@@H]5C4)nc3)c3c(C#N)cnn3c2)n1 [Example 105, 4-(6-((3aR,5r,6aS)-5-hydroxy-5-(pyridin-2-ylmethyl)hexahydrocyclopenta[c]pyrrol-2(1H)-yl)pyridin-3-yl)-6-(1-methyl-1H-pyrazol-3-yl)pyrazolo[1,5-a]pyridine-3-carbonitrile] | ≤ 10 | 10 to 50 |
| CC(=O)NC12CC3CC(C1)N(c1cnc(-c4cc(-c5cnn(C)c5)cn5ncc(C#N)c45)cn1)C(C3)C2 [Example 111, N-((1R,3S,5s,7s)-2-(5-(3-cyano-6-(1-methyl-1H-pyrazol-4-yl)pyrazolo[1,5-a]pyridin-4-yl)pyrazin-2-yl)-2-azaadamantan-5-yl)acetamide] | ≤ 10 | ≤ 10 |
| COc1cncc(C(=O)NC[C@@H]2[C@H]3CN(c4ccc(-c5cc(-c6cnn(C)c6)cn6ncc(C#N)c56)cn4)C[C@@H]23)c1 [Example 192, N-(((1R,5S,6s)-3-(5-(3-cyano-6-(1-methyl-1H-pyrazol-4-yl)pyrazolo[1,5-a]pyridin-4-yl)pyridin-2-yl)-3-azabicyclo[3.1.0]hexan-6-yl)methyl)-5-methoxynicotinainide] | ≤ 10 | 10 to 50 |
| COc1ccnc(C(=O)NC[C@@H]2[C@H]3CN(c4ccc(-c5cc(-c6cnn(C)c6)cn6ncc(C#N)c56)cn4)C[C@@H]23)c1 [Example 193, N-(((1R,5S,6s)-3-(5-(3-cyano-6-(1-methyl-1H-pyrazol-4-yl)pyrazolo[1,5-a]pyridin-4-yl)pyridin-2-yl)-3-azabicyclo[3.1.0]hexan-6-yl)methyl)-4-methoxypicolinamide] | ≤ 10 | ≤ 10 |
| Cn1cc(-c2cc(-c3ccc(N4C[C@@H]5[C@@H](CNC(=O)c6ccnc(C(F)(F)F)c6)[C@@H]5C4)nc3)c3c(C#N)cnn3c2)cn1 [Example 196, N-(((1R,5S,6s)-3-(5-(3-cyano-6-(1-methyl-1H-pyrazol-4-yl)pyrazolo[1,5-a]pyridin-4-yl)pyridin-2-yl)-3-azabicyclo[3.1.0]hexan-6-yl)methyl)-2-(trifluoromethyl)isonicotinamide] | ≤ 10 | 50 to 100 |
| CC(C)(O)COc1cc(-c2cnc(N3C4CC5CC3CC(N)(C5)C4)cn2)c2c(C#N)cnn2c1 [Example 162, 4-(5-((1R,3S,5s,7s)-5-amino-2-azaadamantan-2-yl)pyrazin-2-yl)-6-(2-hydroxy-2-methylpropoxy)pyrazolo[1,5-a]pyridine-3-carbonitrile] | 10 to 50 | > 100 |
| CCOc1cc(-c2cnc(N3C4CC5CC3CC(C(=O)Nc3ccc(OC)nc3)(C5)C4)cn2)c2c(C#N)cnn2c1 [Example 170, (1R,3S,5s,7s)-2-(5-(3-cyano-6-ethoxypyrazolo[1,5-a]pyridin-4-yl)pyrazin-2-yl)-N-(6-methoxypyridin-3-yl)-2-azaadamantane-5-carboxamide] | ≤ 10 | 10 to 50 |
